Results as given in article doi:10.1101/277434v2 (biorxiv, 2024).
pIC50: −log10 of the molar value.

Target: IRAK4 (Homo sapiens, UniProt Q9NWZ3)
Assay: biochemical

Chain of IRAK4 (Q9NWZ3 whole entry): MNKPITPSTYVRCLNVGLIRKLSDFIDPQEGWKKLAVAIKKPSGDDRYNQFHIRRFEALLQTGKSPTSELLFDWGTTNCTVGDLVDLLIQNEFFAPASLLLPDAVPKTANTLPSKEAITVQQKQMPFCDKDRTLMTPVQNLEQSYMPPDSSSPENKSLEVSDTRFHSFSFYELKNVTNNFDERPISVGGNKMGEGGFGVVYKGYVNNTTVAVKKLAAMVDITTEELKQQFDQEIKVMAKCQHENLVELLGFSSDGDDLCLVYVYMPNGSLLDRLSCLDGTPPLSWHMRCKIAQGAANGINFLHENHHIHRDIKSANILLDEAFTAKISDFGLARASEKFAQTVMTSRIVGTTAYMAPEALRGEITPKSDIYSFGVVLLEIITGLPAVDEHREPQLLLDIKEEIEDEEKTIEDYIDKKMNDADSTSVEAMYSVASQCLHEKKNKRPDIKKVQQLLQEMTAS

- pIC50: 5.47
Structure (SMILES): CN(C)C [TMA]
